{"source": "patent US8357407B2", "about": "“Agent for cutaneous photoprotection against UVA/UVB rays” (priority 2009, dated 2013)", "key": {"[1]": {"system": "rat skin under UVB radiation", "assay": "Second test: UVB-induced dermal erythema and sunburnt cells in rat skin", "assay_type": "in vivo", "set-up": "key to presence or absence of erythema or its manifestations in the treated area, per animal: presence (+); absence (−)", "description": "They were acclimatized to the location where the tests were carried out during 7 days after being received. […] The animals were fed ad libitum with a standard rodent diet and running water during this period and during the experimental period. […] The products to be tested were applied directly on the skin as a gel. The test was conducted following the method described by Winder et al. “A Study of Pharmacological Influences of Ultraviolet Erythema in Guinea Pigs”. Arch. Int Pharmacodyn, 116: 261-292. 1958, and other authors such as Wendy, J et al. “The Local Antinociceptive and Topical Anti-inflammatory Effects of Propyl Gallate in Rodents”. Br. J. Pharmacol, 58: 573-581. 1976, and […]. et al. “Protective Effects of Silymarin Against Photocarcinogenesis in a Mouse Skin Model”. J. Natl. Cancer Inst. 89: 556-65. 1997, with slight modifications. The animals were shaved clean six days before the test to eliminate all traces of hair, leaving the skin on their backs completely bare. A morning (10:00 h) and evening (20:00 h) dosage regime for the substance to be tested or for the standard commenced on the first day of the test on a randomized and blind basis lasting 3 days. On the third day, after applying the corresponding morning treatments, the animals were placed and secured in the equipment's exposure platform. The animals were then placed 8 cm from the 4*40 W ultraviolet light source emitting at a fundamental frequency of 313 nm and in a range from approximately 290 to 350 nm, with an anti-UVC filter. The exposure was maintained until all animals received a total dosage of approximately 2.5 kJ/m2, with the irradiation dosis determined by means of an ultraviolet light detector. The backs of the animals were photographed 24 hours after the exposure, and the animals were sacrificed by cervical dislocation. The back skin was removed and a 2×2 cm fragment located under the area were the substance to be tested was applied was placed and maintained for 6 hours in a jar with 10% tamponated formalin, before initiating the paraffin inclusion process and preparation for the histological study. The preparations were observed under an optical microscope and the epidermal-dermal space was photographed at ×100 magnification in 5 different locations for each preparation. A count of sunburnt cells was made for each photograph, considering cells as sunburnt if they had hypereosinophilic cytoplasm with small dark and irregular dense nuclei different than those of its neighbors. The evaluation of the erythema was made on a positive/negative basis, obtaining the percentage of protected animals. The number of hypereosinophilic cells with pyknotic nuclei (sunburnt) was counted in the photographic fields for each of the five different sectors in each histological preparation. The sum of the five counts was considered as the value for each animal. […] The statistical significance of the differences was evaluated by means of non-parametric tests, such as the Fisher Test or the χ^2 (Chi Squared)."}, "[2]": {"assay": "UV/VIS comparative spectral absorption", "assay_type": "physicochemical", "description": "The AEDA was subjected to a UV/VIS spectral analysis at 200-400 nm to determine the peak absorbency of the compounds with UV absorbing characteristics present in the AEDA. A SHIMADZU UV-160 photospectrometer was used for this purpose, with the samples diluted in ethanol until a visible reading in the spectrum was obtained.\nThe AEDA absorption spectra show maximum absorption at wavelengths under 240 nm. In the band from approximately 250 nm to 350 nm. AEDA offers stable absorbency between 0.75 and 1.5 UA that blocks a significant amount of UVC, UVB and the more energetic portion of UVA light. Part of its effects may therefore be due to a screen effect that prevents the luminous radiation from reaching the skin.\nThe first two are located before the UVC band, and the third appears above 285 nm and extends to almost 340 nm. This behavior is typical of the polyphenols present in numerous vegetals, which provide and an effective screen effect that protects plants from solar light. When comparing the concentrations required to reach similar absorbencies, it can be observed that ferulic acid develops its effective blocking ability at 50 μg/ml, whereas with AEDA, 500 μg/ml produce a block equivalent to 50% of that obtained with 50 μg/ml of ferulic acid. To produce similar blocking intensities, the necessary concentrations of AEDA must be 10 to 50 times higher than with ferulic acid."}, "[3]": {"details": "EDA 300 mg/ml or ferulic acid 0.5% topical, p < 0.01 versus Vehicle"}}, "note": "Values joined by “and” are separate entries in the source; they are usually repeats but may differ in a detail not shown here. Equal values may be shown once. Marks after values point to notes of the source that are not given here."}
{"smiles": "COc1cc(/C=C/C(=O)O)ccc1O", "note": "[Ferulic Acid, ferulic acid]", "values": [{"measurement": "number of sunburnt cells, Average ± S.E.M.", "setting": "[1]; 10 animals per group, EDA 300 mg/ml or ferulic acid 0.5% topical, positive control vehicle 32.7 ± 1.52", "value": "5.2 ± 1.08"}, {"measurement": "number of sunburnt cells (in words)", "setting": "[1]; AEDA 300 mg/ml or ferulic acid 0.5% topical, histology", "value": "small"}, {"measurement": "erythema, % inhibition versus Positive Control Vehicle (suppression, subjective criteria)", "setting": "[1]; EDA 300 mg/ml or ferulic acid 0.5% topical", "value": 90, "unit": "%"}, {"measurement": "erythema, % Protected animals", "setting": "[1]; [3]", "value": 70, "unit": "%*"}, {"measurement": "sunburnt cells, % inhibition versus Positive Control Vehicle", "setting": "[1]; [3]", "value": 84.1, "unit": "%*"}, {"measurement": "erythema, % Protected animals", "setting": "[1]; EDA 300 mg/ml or ferulic acid 0.5% topical, p < 0.01 versus Vehicle, listed as ferulic acid", "value": 70, "unit": "%"}, {"measurement": "presence or absence of erythema or its manifestations in the treated area, per animal", "setting": "[1]; individual animals 1-10, EDA 300 mg/ml or ferulic acid 0.5% topical, 24 hours after UVB exposure", "value": "− (6×) and + (3×)"}, {"measurement": "number of sunburnt cells per animal (sum of five counts)", "setting": "[1]; individual animals 1-10, EDA gel 300 mg/ml or ferulic acid gel 0.5%, 100 μl topical twice daily for 3 days, UVB approx. 2.5 kJ/m2, 24 hours after exposure", "value": "8 and 4 (2×) and 3 (2×) and 2 and 10 and 0 and 11 and 7"}, {"measurement": "concentration at which effective UV blocking ability develops", "setting": "[2]", "value": 50, "unit": "µg/mL"}]}
